Assay results taken from US7855205B2, “Pyrimidinyl substituted fused-pyrrolyl compounds useful in treating kinase disorders” (Janssen Pharmaceutica NV, priority 2004, dated 2010).

Key:
VEGF-R2 = molecular target: T1, VEGF-R2 (Rattus norvegicus, UniProt O08775); assay: VEGF-R2 Screening Assay; format: biochemical; conditions: 33P-γ-ATP incorporation, 10 μM ATP
T1 construct: polyhistidine (N)
Protocol: Then 1 μL of test compound stock in 100% DMSO was added to the wells resulting in a final concentration of 1% DMSO in the reaction with a 100 μL final reaction volume. The CDK1:Cyclin-B protein was then diluted in 50 mM Tris-HCl pH=8.0, 0.1% BSA at a concentration of 1 ng per μL and 30 μL (30 ng enzyme per test well) was added to each well to initiate the reaction. The reaction was incubated for one hour at 30° C. At the end of the 1 h incubation, the reaction was terminated by aspirating the mixture from the plate and washing the wells twice with PBS containing 100 mM EDTA. The histone-H1 biotinylated peptide substrate became immobilized on the Flashplate™ and the incorporation of ^33P-γ-ATP was measured by reading the plate on a scintillation counter. Inhibition of the enzymatic activity of CDK1 was measured by observing a reduced amount of ^33P-γ-ATP incorporated into the immobilized peptide. The VEGF-R kinase assay was carried out using the CDK kinase assay procedure except that the enzyme was replaced with the VEGF-R2 fusion protein containing a polyhistidine tag at the N-terminus followed by amino acids 786-1343 of the rat VEGF-R2 kinase domain (GenBank Accession #U93306).

[1] = tested on: HeLa cervical adenocarcinoma; assay: Inhibition of cell proliferation (14C-thymidine incorporation), HeLa; format: cell-based; conditions: Homo sapiens;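 further: HeLa cells in 96-well scintillating plates, compound for 24 h then 24 h more with 14C-thymidine, counting label built into new DNA against DMSO-only control wells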
A375 malignant melanoma = assay: Inhibition of cell proliferation (14C-thymidine incorporation), A375; format: cell-based, human; conditions: Homo sapiens, A-375
Protocol: (§1) The ability of a test compound to inhibit the proliferation of cell growth was determined by measuring incorporation of ^14C-labelled thymidine into newly synthesized DNA within the cells. This method was used on cell lines derived from carcinomas originating from several tissues such as HeLa cervical adenocarcinoma (American Type Culture Collection (ATCC), Virginia, Cat. #CCL-2), A375 malignant melanoma (ATCC CRL-1619), HCT-116 colon carcinoma (CCL-247). In this way the effect of a compound on cell growth of cells with many different phenotypes can be determined. Cells were trypsinized and counted and 3000-8000 cells were added to each well of a 96-well CytoStar tissue culture treated scintillating microplate (Amersham #RPNQ0160) in complete medium in a volume of 100 μL. Cells were incubated for 24 hours in complete medium at 37° C. in an atmosphere containing 5% CO2.
(§2) Next, 1 μL of test compound in 100% DMSO was added to the wells of the plate. DMSO only was added to control wells. Cells were incubated for 24 more hours in complete medium at 37° C. in an atmosphere containing 5% CO2. Methyl ^14C-thymidine 56 mCi/mmol (NEN #NEC568 or Amersham #CFA532) was diluted in complete medium and 0.2 uCi/well was added to each well of the CytoStar plate in a volume of 20 μl. The plate was incubated for 24 hours at 37° C. plus 5% CO2 in drug plus ^14C-thymidine. The contents of the plate discarded into a ^14C radioactive waste container by inverting the plate and the plate was washed twice with 200 μL PBS.
(§3) 200 μL of PBS is added to each well. The top of the plate was sealed with a transparent plate sealer and a white plate backing sealer (Packard #6005199) was applied to the bottom of the plate. The degree of methyl ^14C-thymidine incorporation was quantified on a Packard Top Count.

CDK1:Cyclin-B = molecular target: T2, CDK1:Cyclin-B (Homo sapiens, UniProt P06493); assay: CDK1 Screening Assay; format: biochemical; conditions: 33P-γ-ATP incorporation, 10 μM ATP
T2 construct: purchased New England Biolabs, Beverly, Mass; 6020; host or cells: insect cells
T2 sequence (P06493 whole entry): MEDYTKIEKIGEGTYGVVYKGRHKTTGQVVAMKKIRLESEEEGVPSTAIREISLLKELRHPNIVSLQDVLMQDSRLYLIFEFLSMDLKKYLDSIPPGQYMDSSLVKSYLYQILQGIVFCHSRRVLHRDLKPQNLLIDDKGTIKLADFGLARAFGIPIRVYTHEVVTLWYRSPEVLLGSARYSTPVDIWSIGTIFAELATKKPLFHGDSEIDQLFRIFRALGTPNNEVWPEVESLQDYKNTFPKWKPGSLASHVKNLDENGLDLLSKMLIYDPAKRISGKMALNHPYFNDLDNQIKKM
T2 sequence (P14635 whole entry partner): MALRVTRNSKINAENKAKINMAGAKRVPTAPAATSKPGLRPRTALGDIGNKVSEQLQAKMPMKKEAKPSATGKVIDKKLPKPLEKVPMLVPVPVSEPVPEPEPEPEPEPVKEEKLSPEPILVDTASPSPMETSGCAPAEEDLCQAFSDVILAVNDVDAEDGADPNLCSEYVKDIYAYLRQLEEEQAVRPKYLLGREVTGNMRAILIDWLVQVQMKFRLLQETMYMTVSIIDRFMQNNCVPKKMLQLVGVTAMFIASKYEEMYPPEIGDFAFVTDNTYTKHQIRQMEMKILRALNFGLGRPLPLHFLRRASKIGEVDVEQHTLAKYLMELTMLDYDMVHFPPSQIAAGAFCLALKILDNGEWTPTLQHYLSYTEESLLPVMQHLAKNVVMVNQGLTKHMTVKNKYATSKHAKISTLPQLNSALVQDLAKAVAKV
Protocol: (§4) A kinase reaction mixture was prepared containing 50 mM Tris-HCl pH=8, 10 mM MgCl2, 0.1 mM […], 1 mM DTT, 10 μM ATP, 0.025 μM biotinylated histone-HI peptide substrate and […] per well ^33P-γ-ATP (2000-3000 Ci/mmol). 70 μL of the kinase reaction mixture was dispensed into the well of a streptavidin coated FlashPlate™ (Cat. # SMP103, NEN, Boston, Mass.). Then 1 μL of test compound stock in 100% DMSO was added to the wells resulting in a final concentration of 1% DMSO in the reaction with a 100 μL final reaction volume.
(§5) The CDK1:Cyclin-B protein was then diluted in 50 mM Tris-HCl pH=8.0, 0.1% BSA at a concentration of 1 ng per μL and 30 μL (30 ng enzyme per test well) was added to each well to initiate the reaction. The reaction was incubated for one hour at 30° C. At the end of the 1 h incubation, the reaction was terminated by aspirating the mixture from the plate and washing the wells twice with PBS containing 100 mM EDTA. The histone-H1 biotinylated peptide substrate became immobilized on the Flashplate™ and the incorporation of ^33P-γ-ATP was measured by reading the plate on a scintillation counter. Inhibition of the enzymatic activity of CDK1 was measured by observing a reduced amount of ^33P-γ-ATP incorporated into the immobilized peptide.
The CDK1 used was isolated from insect cells expressing both the human CDK1 catalytic subunit and its positive regulatory subunit cyclin B (New England Biolabs, Beverly, Mass., Cat. #6020).
(§6) • VEGF-R2, HER2 and (Biotin)[…]-Amide • RET kinases • CDK1 (Biotin)[…]-Amide • Aurora-A kinase Biotin-[…]-Amide

Aurora-A = molecular target: T3, Aurora-A (Mus musculus, UniProt P97477); assay: Aurora-A Screening Assay; format: biochemical, murine; conditions: 33P-γ-ATP incorporation, 10 μM ATP
T3 construct: made in house; host or cells: sf9 insect cells
T3 sequence (P97477 1-395): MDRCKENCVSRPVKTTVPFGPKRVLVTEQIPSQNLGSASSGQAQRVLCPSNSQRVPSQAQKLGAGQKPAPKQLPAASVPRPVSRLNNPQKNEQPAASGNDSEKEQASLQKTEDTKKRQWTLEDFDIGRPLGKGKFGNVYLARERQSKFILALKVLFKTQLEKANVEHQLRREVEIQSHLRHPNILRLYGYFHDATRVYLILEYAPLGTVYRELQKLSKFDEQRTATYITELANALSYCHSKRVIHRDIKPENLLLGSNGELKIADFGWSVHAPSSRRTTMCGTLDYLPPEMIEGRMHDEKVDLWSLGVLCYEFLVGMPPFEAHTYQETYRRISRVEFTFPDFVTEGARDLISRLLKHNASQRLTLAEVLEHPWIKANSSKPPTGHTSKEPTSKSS
Protocol: as §4, §5
The Aurora-A kinase assay was carried out using the CDK kinase assay procedure except that the enzyme was replaced with the full length protein encoding the murine Aurora-A (Accession# GB BC014711) expressed and purified from sf9 insect cells.
as §6

HCT-116 colon carcinoma = assay: Inhibition of cell proliferation (14C-thymidine incorporation), HCT-116; format: cell-based; conditions: Homo sapiens, HCT-116, HCT116
Protocol: as §1, §2, §3

T1 sequence (O08775 786-1343): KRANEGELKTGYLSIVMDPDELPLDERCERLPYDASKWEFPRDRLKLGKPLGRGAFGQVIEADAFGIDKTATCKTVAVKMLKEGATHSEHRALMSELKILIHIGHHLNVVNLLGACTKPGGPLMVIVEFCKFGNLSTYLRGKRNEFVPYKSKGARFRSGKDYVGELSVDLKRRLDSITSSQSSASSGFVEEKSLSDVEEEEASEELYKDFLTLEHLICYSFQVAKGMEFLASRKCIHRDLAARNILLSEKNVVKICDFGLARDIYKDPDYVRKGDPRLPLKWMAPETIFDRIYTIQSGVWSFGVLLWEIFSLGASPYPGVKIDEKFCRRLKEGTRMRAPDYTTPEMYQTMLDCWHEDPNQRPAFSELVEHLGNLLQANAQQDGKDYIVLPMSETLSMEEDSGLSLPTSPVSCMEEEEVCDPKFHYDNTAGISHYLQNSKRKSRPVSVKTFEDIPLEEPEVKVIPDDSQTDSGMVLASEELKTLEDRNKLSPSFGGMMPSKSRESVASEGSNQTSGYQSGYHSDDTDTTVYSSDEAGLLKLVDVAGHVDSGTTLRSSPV

SMILES | IC50 (VEGF-R2) [µM] | IC50 [1] [µM] | IC50 (A375 malignant melanoma) [nM] | IC50 (CDK1:Cyclin-B) [µM] | IC50 (Aurora-A) [µM] | IC50 (HCT-116 colon carcinoma) [µM]
c1cnc2[nH]cc(-c3ccnc(NC4CCCC4)n3)c2c1 [Cpd 14, Cyclopentyl-[4-(1H-pyrrolo[2,3-b]pyridin-3-yl)-pyrimidin-2-yl]-amine] | 2.23 | 0.059 | 93 | 0.088 | 0.885 | 0.078
c1cnc2[nH]cc(-c3ccnc(NC4CCCCCC4)n3)c2c1 [Cpd 15, Cycloheptyl-[4-(1H-pyrrolo[2,3-b]pyridin-3-yl)-pyrimidin-2-yl]-amine] | 2.11 | 0.0082 | 4.67 | 0.012 | 0.166 | 0.00756
c1cnc2[nH]cc(-c3ccnc(NCC4CCCCC4)n3)c2c1 [Cpd 16, Cyclohexylmethyl-[4-(1H-pyrrolo[2,3-b]pyridin-3-yl)-pyrimidin-2-yl]-amine] | 10 | 0.368 | 604 | 0.151 | 0.636 | 0.41
O[C@H]1CC[C@H](Nc2nccc(-c3c[nH]c4ncccc34)n2)CC1 [Cpd 18, trans-4-[4-(1H-Pyrrolo[2,3-b]pyridin-3-yl)-pyrimidin-2-ylamino]-cyclohexanol] | 1.79 | 0.00161 | 1.77 | 0.0076 | 0.335 | 0.00225
COc1ccc(Nc2nccc(-c3c[nH]c4ncccc34)n2)c(C)c1 [Cpd 27, (4-Methoxy-2-methylphenyl)-[4-(1H-pyrrolo[2,3-b]pyridin-3-yl)-pyrimidin-2-yl]-amine] | 1 | 0.0072 | 4.5 | 0.002 | 0.357 | 0.00639
Brc1ccccc1Nc1nccc(-c2c[nH]c3ncccc23)n1 [Cpd 28, (2-Bromophenyl)-[4-(1H-pyrrolo[2,3-b]pyridin-3-yl)-pyrimidin-2-yl]-amine] | 1 | 0.0952 | 67.6 | 0.0127 | 0.175 | 0.118
FC(F)(F)c1ccccc1Nc1nccc(-c2c[nH]c3ncccc23)n1 [Cpd 29, (2-trifluoromethylphenyl)-[4-(1H-pyrrolo[2,3-b]pyridin-3-yl)-pyrimidin-2-yl]-amine] | 1.97 | 0.392 | 403 | 0.056 | 1 | 0.381
Oc1ccccc1Nc1nccc(-c2c[nH]c3ncccc23)n1 [Cpd 30, (2-Hydroxyphenyl)-[4-(1H-pyrrolo[2,3-b]pyridin-3-yl)-pyrimidin-2-yl]-amine] | 0.049 | 0.956 | 1650 | 0.139 | 0.289 | 0.652
Fc1ccccc1Nc1nccc(-c2c[nH]c3ncccc23)n1 [Cpd 31, (2-Fluorophenyl)-[4-(1H-pyrrolo[2,3-b]pyridin-3-yl)-pyrimidin-2-yl]-amine] | 1 | 0.0992 | 110 | 0.046 | 0.1 | 0.105
CCc1ccccc1Nc1nccc(-c2c[nH]c3ncccc23)n1 [Cpd 32, (2-Ethylphenyl)-[4-(1H-pyrrolo[2,3-b]pyridin-3-yl)-pyrimidin-2-yl]-amine] | 1.47 | 0.292 | 217 | 0.068 | 0.396 | 0.254
Cc1ccc(Nc2nccc(-c3c[nH]c4ncccc34)n2)c(C)c1 [Cpd 33, (2,4-Dimethylphenyl)-[4-(1H-pyrrolo[2,3-b]pyridin-3-yl)-pyrimidin-2-yl]-amine] | 1.14 | 0.000993 | 0.0467 | 0.001 | 0.408 | 0.000542
Cc1cccc(Nc2nccc(-c3c[nH]c4ncccc34)n2)c1C [Cpd 34, (2,3-Dimethylphenyl)-[4-(1H-pyrrolo[2,3-b]pyridin-3-yl)-pyrimidin-2-yl]-amine] | 0.618 | 0.0114 | 15.7 | 0.004 | 0.238 | 0.00137
